These results are taken from patent publication US20040077563A1, “Methods of drug delivery to hepatocytes and treatment of flaviviridae infections” (priority 2003, published 2004).

Data set [1] concerns Hep3B, HepG2 & Huh7 cell lines. The data set can be described thus: Uptake of [3H]-labeled nucleosides by different human liver cell lines. Type of data set: cell-based. Conditions: for nucleoside uptake into hepatocytes (radioactivity in the cell lysate): Hep3B, HepG2, Huh7, 20 μCi/ml [3H]-nucleoside plus 10 μM cold nucleoside, 4 hr at 37° C, FIG. 1. Here is the method: In order to determine whether Ribavirin and Viramidine™ use a similar mode of entry in human hepatocytes, the inventors performed several experiments. First, various strains of hepatocytes (Hep3B, HepG2, and Huh7) were incubated with various nucleotide analogs (e.g., Ribavirin, Levovirin (the L-isomer of Ribavirin), and Viramidine™), and the result of the nucleoside uptake experiments are illustrated in FIG. 1.
Hep3B, HepG2 & Huh7 cell lines were used at a concentration of 50,000 cells/well in a 24-wells plate, and incubated with [^3H]-labeled Ribavirin, Levovirin™, and Viramidine™ (20 μCi/ml) plus 10 μM cold nucleoside for 4 hr at 37° C. The cells were washed with PBS and lysed, and the radioactivity in the cell lysate (i.e.the amount of labeled nucleoside taken up by the cells) was determined in a scintillation counter.

The test system of another data set is HepG2 cells. The experiment in a line: Nucleoside competition assay. Type of data set: cell-based, human. To be noted: cold competitor 0, 100 μM, 500 μM, 2 mM, 2 hrs at 37° C. Here is the method:
To address this question, the inventors performed uptake competition experiments in which radiolabeled Ribavirin or Viramidine™ competed for uptake with unlabeled Viramidine™ or Ribavirin, respectively.
50,000 HepG2 cells/well were placed in a 24-wells plate and incubated with [3H]-labeled nucleoside (20 μCi/ml). Competition was performed with increasing concentrations of cold (0, 100 μM, 500 μM, and 2 mM) competitor nucleoside. Incubation time was 2 hrs at 37° C. The cells were then washed with PBS and lysed. The radioactivity in the cell lysate (i.e. the amount of labeled nucleoside taken up by the cells) was determined in a scintillation counter.

The test system of data set [2] is erythrocytes. Conditions: stated as known for Ribavirin; cited from earlier work.
Data set [3] concerns deaminase/deamidase activity in hepatocytes. The experiment in a line: Conversion of carboxamidine to carboxamide in the liver. Format: in vitro ADME. To be noted: unpublished results. The text has this: Therefore, it is contemplated that by including a carboxamidine group to a molecule and exploiting the relatively high deaminase/deamidase acitivity of hepatocytes, molecules may be specifically targeted to the liver. With respect to contemplated molecules having a —C(NR1)(NR2R3) it should be appreciated that various deaminase/deamidase acitivities of hepatocytes are sufficiently high to convert such compounds from a prodrug form into an active drug form (e.g., drug activity is increased when carboxamide group is present).

Data set [4] concerns erythrocytes. The data set can be described thus: Uptake into erythrocytes. Type of data set: cell-based. Conditions: data not shown. The text has this:
Thus, it should be appreciated that toxicity of a nucleoside or nucleotide compound can be reduced by modifying the compound to include a carboxamidine moiety or modified carboxamidine moiety as described above, wherein target cells for modified compounds include a transporter system, which non-target cells lack. […] It is contemplated that this difference in uptake is attributable to the lack of a Viramidine™ uptake and/or transporter system.

A further data set can be described thus: Water solubility. Format: physicochemical. The text has this:
It is contemplated that Viramidine™*HCl (in either D- or L-configuration) will be administered in any appropriate pharmaceutical formulation, and under any appropriate protocol. Thus, administration may take place orally, parenterally (including subcutaneous injections, intravenous, intramuscularly, by intrasternal injection or infusion techniques), by inhalation spray, or rectally, topically and so forth, and in dosage unit formulations containing conventional non-toxic pharmaceutically acceptable carriers, adjuvants and vehicles. By way of example, it is contemplated that Viramidine™*HCl can be formulated in admixture with a pharmaceutically acceptable carrier. For example, Viramidine™*HCl can be administered orally as pharmacologically acceptable salts. […] Conventional buffers such as phosphates, bicarbonates or citrates can be used for this purpose. Of course, one of ordinary skill in the art may modify the formulations within the teachings of the specification to provide numerous formulations for a particular route of administration without rendering Viramidine™*HCl unstable or compromising their therapeutic activity. In particular, the modification of Viramidine™*HCl to render it more soluble in water or another vehicle, for example, may be easily accomplished by minor modifications (salt formulation, esterification, etc.) that are well within the ordinary skill in the art. […]

The test system of another data set is flaviviridae. The data set can be described thus: Inhibition of growth of flaviviridae in a cell containing medium. Type of data set: cell-based. Conditions: added to a cell-containing medium; data not shown. An excerpt: The family of flaviviridae has recently gained special attention due to several occurrences of West Nile Virus encephalitis in the eastern part of the USA, resulting in at least 7 reported deaths and at least 62 cases of severe disease. Moreover, hepatitis C-like viruses (and the HCV virus) also belong to the family of flaviviridae, further adding to the significance of flaviviridae with respect to public and private health. While not wishing to be bound by a particular theory or hypothesis, it is contemplated that increased transport of Viramidine™*HCl is particularly beneficial for treatment of flaviridae-virus infections.

Molecules are shown by their SMILES.

As to `NC(=O)c1ncn([C@H]2O[C@@H](CO)[C@H](O)[C@@H]2O)n1` [Levovirin, reference compound], the “nucleoside uptake into hepatocytes (radioactivity in the cell lysate)” value (from here on “nucleoside uptake into hepatocytes”) in data set [1] is on record as “taken up into all of the tested hepatocytes”.
Regarding `NC(=O)c1ncn([C@@H]2O[C@H](CO)[C@@H](O)[C@H]2O)n1` [Ribavirin, 1-beta-D-ribofuranosyl-1,2,4-triazole-3-carboxamide, reference compound], in the data set with HepG2 cells (FIG. 3), the “competition of [3H]-Viramidine uptake by unlabeled competitor” value was “at least partial competition”. Also, the “uptake into erythrocytes (background statement)” value with erythrocytes [2] is listed as “readily taken up by erythrocytes”. Moreover, in data set [1], the “nucleoside uptake into hepatocytes” value is “more efficiently taken up over the L-isomer of Ribavirin”.
`N=C(N)c1ncn([C@@H]2O[C@H](CO)[C@@H](O)[C@H]2O)n1` [Viramidine™, 1-beta-D-ribofuranosyl-1,2,4-triazole-3-carboxamidine]: the “conversion in the liver” value in data set [3] was “converted in the liver to Ribavirin”. Also, in the data set on HepG2 cells (FIG. 2), the “competition of [3H]-Ribavirin uptake by unlabeled competitor” value is recorded as “at least partial competition”. The “nucleoside uptake into hepatocytes” value in data set [1] was “taken up to a significantly higher degree in all three cell lines”. Also, the “rate of uptake into, and overall concentration in, hepatocytes as compared to Ribavirin” value in data set [1] (hepatocytes) is “significantly higher”. For the same molecule, the uptake into erythrocytes result in the data set with erythrocytes [4] is given as “not taken up into erythrocytes”.
As to `Cl.N=C(N)c1ncn([C@@H]2O[C@H](CO)[C@@H](O)[C@H]2O)n1` [Viramidine™*HCl, 1-beta-D-ribofuranosyl-1,2,4-triazole-3-carboxamidine*HCl], the water solubility entry in “Water solubility” is given as “mostly water soluble”. Also, in the data set on flaviviridae, the “inhibition of growth of flaviviridae” value is listed as “can be inhibited”.
